# How the values were obtained:
# [1] = test system: HEp-2; experiment: Cytotoxicity against human Hep2 cells at 1 uM after 48 hrs by SRB assay; format: functional; conditions: HEp-2, 48 h, read-out: GI
# [2] = test system: HCT-15; experiment: Cytotoxicity against human HCT15 cells at 1 uM after 48 hrs by SRB assay; format: functional; conditions: HCT-15, 48 h, read-out: GI
structure (smiles),measurement,setting,value
CO[C@@]12[C@H](COC(N)=O)C3=C(C(=O)C(C)=C(N)C3=O)N1C[C@@H]1N[C@@H]12 [MITOMYCIN],inhibition of growth at 1 µM,[1],68%
same,inhibition of growth at 1 µM,[2],76%

# — ChEMBL document CHEMBL2380302, “Synthesis of 3-O-propargylated betulinic acid and its 1,2,3-triazoles as potential apoptotic agents” (Eur J Med Chem, 2013)
